Source: US11919898B2, “Crystal form of azaindole derivative and use thereof” (Wuxi Life Fountain Biotech Co., Ltd, priority 2020, dated 2024)

What was measured:
human FGFR1 = biological target: T1, human FGFR1 (Homo sapiens, UniProt P11362); assay: 33P isotope-labeled kinase activity assay, FGFR1; format: biochemical; settings: ATP 5 μM
T1 construct: purchased Invitrogen PV3146
Procedure: Test procedure: At room temperature, the test compound was dissolved in DMSO to prepare a 10 mM solution for use. The substrate was dissolved in freshly prepared buffer, and the test kinase was added and mixed well. A solution of the test compound in DMSO was added to the mixed reaction solution using an acoustic technology (Echo550). […] After 15 min of incubation, ^33P-ATP (with an activity of 0.01 μCi/nL, the corresponding concentration is listed in Table 18) was added to start the reaction. […] The kinase activity data were expressed by the comparison of the kinase activity in the presence of the test compound with the kinase activity of the blank group (containing only DMSO), and an IC50 value was obtained by curve fitting with Prism4 software (GraphPad).

human FGFR4 = biological target: T2, human FGFR4 (Homo sapiens, UniProt P22455); assay: 33P isotope-labeled kinase activity assay, FGFR4; format: biochemical; settings: ATP 100 μM
T2 construct: purchased Invitrogen P3054
Procedure: (§1) The IC50 value was tested by ^33P isotope-labeled kinase activity assay (Reaction Biology Corp) to evaluate the inhibition of the test compounds on human FGFR1, FGFR4, and c-Met.
(§2) Buffer: 20 mM Hepes (pH 7.5), 10 mM MgCl2, 1 mM EGTA, 0.02% Brij35, 0.02 mg/ml BSA, 0.1 mMNa3VO4, 2 mM DTT, and 1% DMSO.
(§3) Test procedure: At room temperature, the test compound was dissolved in DMSO to prepare a 10 mM solution for use. The substrate was dissolved in freshly prepared buffer, and the test kinase was added and mixed well. A solution of the test compound in DMSO was added to the mixed reaction solution using an acoustic technology (Echo550). The compound concentration in the reaction solution was 1 μM, 0.25 μM, […], 0.977 nM, 0.244 nM, 0.061 nM, 0.0153 nM, 0.00381 nM, or 10 μM, 2.50 μM, 0.62 μM, 0.156 μM, 39.1 nM, 9.8 nM, 2.4 nM, 0.61 nM, 0.15 nM, and 0.038 nM, respectively. After 15 min of incubation, ^33P-ATP (with an activity of 0.01 μCi/nL, the corresponding concentration is listed in Table 18) was added to start the reaction. The supplier's catalogue number, lot number, and concentration in the reaction solution of FGFR1, FGFR4, c-Met, and substrates thereof are listed in Table 18. […]

human c-Met = biological target: T3, human c-Met (Homo sapiens, UniProt P08581); assay: 33P isotope-labeled kinase activity assay, c-Met; format: biochemical; settings: ATP 10 μM
T3 construct: purchased Invitrogen PV3143
Procedure: as §1, §2, §3

[1] = Hygroscopicity test by dynamic vapor sorption (DVS); format: physicochemical
Procedure: Dynamic Vapor Sorption (DVS) of the Present Invention • Instrument model: SMS DVS Intrinsic Dynamic Vapor Sorption Analyzer • Test method: A sample (10-30 mg) is tested in a DVS sample pan. Detailed DVS Parameters: • Temperature: 25° C. • Equilibration: dm/dt=0.002%/min (Minimum: 10 min, Maximum: 180 min) • RH (%) test interval: 10 (0-90%), 5 (90-95%) • RH (%) test interval range: 0-95-0 Hygroscopicity evaluations are classified as follows: [table] Note: AW % represents the hygroscopic weight gain of the test product at 25° C./80% RH. Experimental Method: • 10-30 mg of the crystal form A of the compound of Formula (II) was placed in the DVS sample pan and tested. Experimental Method: • 10-30 mg of the crystal form G of the compound of Formula (III) was placed in the DVS sample pan and tested. Experimental Method: • 10-30 mg of the crystal form J of the compound of Formula (IV) was placed in the DVS sample pan and tested.

[2] = Stability comparison of crystal form A and crystal form B (slurry in ethanol, XRPD); format: physicochemical; settings: from conversion in ethanol, 16 hrs
Excerpt: 35 g of the crystal form B of the compound of Formula (II) was weighed, added to ethanol, and stirred for 16 hrs.

SNU-16 xenograft model = assay: In vivo pharmacodynamic evaluation, SNU-16 xenograft model; design: species or system nude mice; settings: for TGI % (the last dose is given on day 30): SNU-16 xenograft model, nude mice
Procedure: SNU-16 cells in logarithmic growth phase were harvested, counted and resuspended in 50% PBS (pH 7.4, 0.01 M) and 50% Matrigel. The cell concentration was adjusted to 4×10^7 cells/mL, and the cells were then placed in an ice box. The cell suspension was aspirated with a 1 mL syringe and injected subcutaneously into the anterior right axilla of nude mice, at a dose of 200 μL/animal (8×10^6 cells/animal) to establish a SNU-16 xenograft model. The animal status was observed periodically, and the tumor size was measured using an electronic vernier caliper. The data was entered into an Excel spreadsheet, and the tumor volume was calculated, to monitor the tumor growth. When the tumor volume reached 100-300 mm^3, 35 tumor-bearing mice (with a tumor volume of 112-182 mm^3) in good health status having similar tumor volume were selected and randomized into 5 groups (n=7). The average tumor volume in each group was about 150 mm^3. After the test was started, the tumor size was measured twice a week, the tumor volume was calculated, and the body weight of the animal was weighed and recorded.
Analysis of tumor growth inhibition (TGI): The evolutionary growth potential of tumors was evaluated by the relationship between the tumor volume and time. The long axis (L) and short axis (W) of subcutaneous tumor were measured twice a week by a caliper, and the tumor volume (TV) was calculated by the formula ((L×W^2)/2). TGI was calculated from the difference between the median tumor volume of the mice in the solvent group and the median tumor volume of the mice in the drug group, and expressed as a percentage relative to the median tumor volume in the solvent control group.
The test data was calculated and statistically processed by SPSS19.0. Unless otherwise specified, the data were expressed as mean±standard error (Mean±SE), and the comparison between the two groups was analyzed by T-test. […] The solvent 30% PEG400 (containing 70% deionized water, v/v) alone was used as the negative control.

T1 sequence (P11362 22-822): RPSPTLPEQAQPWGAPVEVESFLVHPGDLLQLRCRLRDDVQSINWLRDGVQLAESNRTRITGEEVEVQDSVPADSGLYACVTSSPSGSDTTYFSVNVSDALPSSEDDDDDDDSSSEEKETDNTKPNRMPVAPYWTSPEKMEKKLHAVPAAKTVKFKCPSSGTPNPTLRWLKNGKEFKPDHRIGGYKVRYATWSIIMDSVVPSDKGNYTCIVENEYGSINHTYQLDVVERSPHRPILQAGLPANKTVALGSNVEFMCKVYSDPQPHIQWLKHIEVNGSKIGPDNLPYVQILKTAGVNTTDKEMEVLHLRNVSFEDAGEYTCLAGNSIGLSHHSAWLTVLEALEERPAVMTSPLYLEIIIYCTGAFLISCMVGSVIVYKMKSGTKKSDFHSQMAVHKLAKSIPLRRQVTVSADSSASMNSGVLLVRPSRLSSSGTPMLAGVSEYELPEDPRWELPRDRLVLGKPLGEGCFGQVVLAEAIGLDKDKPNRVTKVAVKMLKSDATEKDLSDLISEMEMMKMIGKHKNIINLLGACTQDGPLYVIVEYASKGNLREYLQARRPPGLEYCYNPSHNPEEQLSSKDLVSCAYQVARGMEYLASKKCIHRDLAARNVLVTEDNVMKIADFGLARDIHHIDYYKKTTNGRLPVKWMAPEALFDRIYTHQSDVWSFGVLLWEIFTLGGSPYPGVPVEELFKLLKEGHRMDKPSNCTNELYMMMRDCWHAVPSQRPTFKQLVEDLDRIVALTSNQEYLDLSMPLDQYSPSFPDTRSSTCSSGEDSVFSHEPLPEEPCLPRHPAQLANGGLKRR
T2 sequence (P22455 22-802): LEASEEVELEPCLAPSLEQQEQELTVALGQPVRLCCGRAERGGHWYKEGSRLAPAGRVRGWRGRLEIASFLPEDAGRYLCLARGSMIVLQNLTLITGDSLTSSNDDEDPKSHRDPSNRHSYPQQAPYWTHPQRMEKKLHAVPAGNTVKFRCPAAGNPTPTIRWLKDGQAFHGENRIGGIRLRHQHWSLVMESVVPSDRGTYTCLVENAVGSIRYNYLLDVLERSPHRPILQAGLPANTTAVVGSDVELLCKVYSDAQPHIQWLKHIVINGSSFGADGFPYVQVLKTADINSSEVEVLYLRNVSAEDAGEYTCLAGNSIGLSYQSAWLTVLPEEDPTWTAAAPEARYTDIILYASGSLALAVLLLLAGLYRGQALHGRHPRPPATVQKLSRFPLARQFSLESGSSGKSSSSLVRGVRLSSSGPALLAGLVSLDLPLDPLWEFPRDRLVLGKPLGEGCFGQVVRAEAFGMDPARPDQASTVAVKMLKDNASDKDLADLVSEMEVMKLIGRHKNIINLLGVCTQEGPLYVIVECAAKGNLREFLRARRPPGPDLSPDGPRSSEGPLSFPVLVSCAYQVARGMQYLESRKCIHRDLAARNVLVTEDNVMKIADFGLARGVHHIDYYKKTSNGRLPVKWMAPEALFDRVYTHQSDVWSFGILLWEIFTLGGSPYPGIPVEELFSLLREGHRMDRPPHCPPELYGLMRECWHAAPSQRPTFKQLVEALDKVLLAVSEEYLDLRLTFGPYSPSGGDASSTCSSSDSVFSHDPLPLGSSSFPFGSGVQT
T3 sequence (P08581 25-1390): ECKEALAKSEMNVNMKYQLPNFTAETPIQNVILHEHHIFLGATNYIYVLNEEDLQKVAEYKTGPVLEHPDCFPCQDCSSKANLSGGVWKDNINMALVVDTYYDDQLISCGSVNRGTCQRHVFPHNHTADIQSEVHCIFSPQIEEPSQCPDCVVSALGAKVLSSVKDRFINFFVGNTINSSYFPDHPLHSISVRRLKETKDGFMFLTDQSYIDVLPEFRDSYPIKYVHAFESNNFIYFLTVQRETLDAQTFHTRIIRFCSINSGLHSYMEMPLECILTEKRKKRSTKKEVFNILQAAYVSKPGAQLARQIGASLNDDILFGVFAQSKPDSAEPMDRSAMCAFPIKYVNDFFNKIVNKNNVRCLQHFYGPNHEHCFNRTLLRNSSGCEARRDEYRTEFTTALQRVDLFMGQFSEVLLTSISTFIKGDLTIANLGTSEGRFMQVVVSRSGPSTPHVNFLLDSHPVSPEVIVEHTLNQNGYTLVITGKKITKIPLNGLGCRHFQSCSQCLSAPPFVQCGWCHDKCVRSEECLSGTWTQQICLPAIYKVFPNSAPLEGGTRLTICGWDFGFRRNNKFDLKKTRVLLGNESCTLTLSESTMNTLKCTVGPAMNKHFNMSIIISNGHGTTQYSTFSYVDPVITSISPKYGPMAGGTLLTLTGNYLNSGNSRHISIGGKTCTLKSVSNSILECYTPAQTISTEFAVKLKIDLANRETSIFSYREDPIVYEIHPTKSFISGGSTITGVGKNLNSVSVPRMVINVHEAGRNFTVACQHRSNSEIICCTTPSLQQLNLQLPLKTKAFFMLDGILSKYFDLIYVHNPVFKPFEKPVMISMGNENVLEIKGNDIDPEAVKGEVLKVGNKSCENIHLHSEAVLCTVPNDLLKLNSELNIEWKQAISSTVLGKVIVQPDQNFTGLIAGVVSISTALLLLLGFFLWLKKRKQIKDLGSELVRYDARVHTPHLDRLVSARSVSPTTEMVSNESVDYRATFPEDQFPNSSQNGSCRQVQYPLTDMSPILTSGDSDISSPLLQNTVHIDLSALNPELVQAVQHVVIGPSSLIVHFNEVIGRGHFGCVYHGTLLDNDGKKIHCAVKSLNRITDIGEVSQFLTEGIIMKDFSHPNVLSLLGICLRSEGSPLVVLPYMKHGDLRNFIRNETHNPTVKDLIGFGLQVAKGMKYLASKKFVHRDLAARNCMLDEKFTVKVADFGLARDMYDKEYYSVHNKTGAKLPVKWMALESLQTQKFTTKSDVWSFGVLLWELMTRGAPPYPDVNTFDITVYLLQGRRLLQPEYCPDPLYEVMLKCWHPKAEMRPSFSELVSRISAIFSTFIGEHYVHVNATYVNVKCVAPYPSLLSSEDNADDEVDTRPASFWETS

IC50 (human FGFR1): 0.2 nM
IC50 (human FGFR4): 1.49 nM
IC50 (human c-Met): 15.9 nM
ΔW, hygroscopic weight gain ([1]; 25° C. and 80% RH, DVS): 0.3710%
Classification of hygroscopicity ([1]; 25° C./80% RH): slightly hygroscopic
SMILES: COc1cc(OC)c(F)c(Cc2c[nH]c3ncc(-c4cnn(CCO)c4)cc23)c1F.Cl
Relative stability of crystal forms [2]: more stable than the crystal form B of the compound of Formula (II)
TGI % (the last dose is given on day 30) (SNU-16 xenograft model; 2.5 mg/kg BID): 72%
TGI % (the last dose is given on day 30) (SNU-16 xenograft model; 5.0 mg/kg BID): 86%
Tumor inhibitory effect (SNU-16 xenograft model; tumor model SNU-16, nude mice): excellent tumor inhibitory effect
